Laboratory results from publication PMC12000319, “Proton conductance by human uncoupling protein 1 is inhibited by purine and pyrimidine nucleotides” (The EMBO Journal, 2025).
“And” between values parts separate entries of the source, which are not always exact repeats. Equal entries are not always repeated. Where two headings read alike, the source gives them in different places.

Legend:
UCP1 [1] = biological target: T1, UCP1 (Homo sapiens, UniProt P25874); test: Differential scanning fluorimetry (nanoDSF) thermal stability shift assay; format: binding; conditions: for ΔTm at 1000 µM: read-out: thermal shift (ΔTm)
T1 construct: His8 (N, cleaved yes); Factor Xa protease cleavage site (N, cleaved yes); made in house; host or cells: Saccharomyces cerevisiae strain W303.1B
T1 sequence (P25874 1-307): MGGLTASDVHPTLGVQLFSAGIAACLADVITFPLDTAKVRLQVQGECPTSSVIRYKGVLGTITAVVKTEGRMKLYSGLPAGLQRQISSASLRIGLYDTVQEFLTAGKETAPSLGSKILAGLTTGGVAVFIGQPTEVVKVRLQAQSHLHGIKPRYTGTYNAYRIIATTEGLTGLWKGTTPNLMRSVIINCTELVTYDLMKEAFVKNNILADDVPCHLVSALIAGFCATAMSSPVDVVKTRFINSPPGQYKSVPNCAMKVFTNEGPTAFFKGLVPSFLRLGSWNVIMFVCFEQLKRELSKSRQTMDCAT

human DIC (SLC25A10) = biological target: T2, human DIC (SLC25A10) (Homo sapiens, UniProt Q9UBX3); test: as above; format: binding; conditions: 1 mM nucleotide, pH 6.0, single repeats (source data Fig. 4A)
T2 construct: His8 (N, cleaved yes); Factor Xa protease cleavage site (N, cleaved yes); made in house; host or cells: Saccharomyces cerevisiae protease-deficient strain BJ2186
T2 sequence (Q9UBX3 1-287): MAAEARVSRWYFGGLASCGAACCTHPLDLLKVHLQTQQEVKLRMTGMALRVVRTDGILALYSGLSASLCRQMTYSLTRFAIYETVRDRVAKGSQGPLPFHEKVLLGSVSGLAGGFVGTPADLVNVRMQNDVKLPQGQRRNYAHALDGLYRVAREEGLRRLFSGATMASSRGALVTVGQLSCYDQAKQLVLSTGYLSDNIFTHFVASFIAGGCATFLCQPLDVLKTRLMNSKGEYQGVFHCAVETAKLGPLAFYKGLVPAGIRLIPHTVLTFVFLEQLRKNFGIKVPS

UCP1 [2] = biological target: T1, UCP1; test: Isothermal titration calorimetry of nucleotide binding; design: isotherm data point (enthalpy change per injection): unit not given here; conditions: for isotherm data point (enthalpy change per injection): representative isotherm, pH 6.0, 20 °C;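 on all read-outs here: purified human UCP1 in cacodylate buffer with lauryl maltose neopentyl glycol and cardiolipin, titrated with nucleotides, isotherms fitted by one-site model yielding ΔH, Kd and stoichiometry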
UCP1 [3] = test system: UCP1; design: method as in Heaton and Nicholls, 1977; Divakaruni et al, 2012; conditions: whole mitochondria; ref Heaton and Nicholls, 1977; Divakaruni et al, 2012; cited from earlier work
UCP1 [4] = test system: UCP1; design: method as in Heaton and Nicholls, 1977; conditions: ref Heaton and Nicholls, 1977; cited from earlier work

Structure (SMILES): O=c1ccn([C@@H]2O[C@H](CO[P@@](=O)(O)O[P@@](=O)(O)OP(=O)(O)O)[C@@H](O)[C@H]2O)c(=O)[nH]1 (stereo in doubt) [UTP, uridine triphosphate]
- temperature shift (ΔTm) (UCP1 [1]; 1 mM nucleotide, pH 6.0, detergent-solubilised UCP1, mean of three biological repeats): 15.3 °C
- effect of Ca2+ or Mg2+ on nucleotide binding to UCP1 (ΔTm) (UCP1 [1]; 1 mM nucleotide, pH 6.0, range of Ca2+ or Mg2+ concentrations, until supramaximal concentrations): no difference for either cation
- ΔTm at 1000 µM (UCP1 [1]; pH 6, 1 mM nucleotide, pH 6.0, single repeats (source data Fig. 1D)): 15.7 °C
- ΔTm at 1000 µM (UCP1 [1]; pH 6.5, 1 mM nucleotide, pH 6.5, single repeats (source data Fig. 1D)): 11.1 °C
- ΔTm at 1000 µM (UCP1 [1]; pH 7, 1 mM nucleotide, pH 7.0, single repeats (source data Fig. 1D)): 6.3 °C
- ΔTm at 1000 µM (UCP1 [1]; pH 7.5, 1 mM nucleotide, pH 7.5, single repeats (source data Fig. 1D)): 1.4 °C
- change in apparent melting temperature (ΔTm) of hDIC (human DIC (SLC25A10)): 0.8 and 0.6
- binding affinity to UCP1 (in words) (UCP1 [2]; ITC): intermediary affinities
- isotherm data point (enthalpy change per injection) (UCP1 [2]; Molar ratio (Nucleotide/UCP) 0.120417): -22.5081
- isotherm data point (enthalpy change per injection) (UCP1 [2]; Molar ratio (Nucleotide/UCP) 0.181226): -22.8003
- isotherm data point (enthalpy change per injection) (UCP1 [2]; Molar ratio (Nucleotide/UCP) 0.242439): -21.4037
- isotherm data point (enthalpy change per injection) (UCP1 [2]; Molar ratio (Nucleotide/UCP) 0.304059): -20.9646
- isotherm data point (enthalpy change per injection) (UCP1 [2]; Molar ratio (Nucleotide/UCP) 0.366087): -21.4794
- isotherm data point (enthalpy change per injection) (UCP1 [2]; Molar ratio (Nucleotide/UCP) 0.428528): -19.8691
- isotherm data point (enthalpy change per injection) (UCP1 [2]; Molar ratio (Nucleotide/UCP) 0.491383): -17.9061
- isotherm data point (enthalpy change per injection) (UCP1 [2]; Molar ratio (Nucleotide/UCP) 0.554656): -18.3443
- isotherm data point (enthalpy change per injection) (UCP1 [2]; Molar ratio (Nucleotide/UCP) 0.618348): -16.1153
- isotherm data point (enthalpy change per injection) (UCP1 [2]; Molar ratio (Nucleotide/UCP) 0.682464): -14.9337
- isotherm data point (enthalpy change per injection) (UCP1 [2]; Molar ratio (Nucleotide/UCP) 0.747006): -12.0255
- isotherm data point (enthalpy change per injection) (UCP1 [2]; Molar ratio (Nucleotide/UCP) 0.811976): -11.5031
- isotherm data point (enthalpy change per injection) (UCP1 [2]; Molar ratio (Nucleotide/UCP) 0.877378): -10.3349
- isotherm data point (enthalpy change per injection) (UCP1 [2]; Molar ratio (Nucleotide/UCP) 0.943214): -7.729
- isotherm data point (enthalpy change per injection) (UCP1 [2]; Molar ratio (Nucleotide/UCP) 1.00949): -6.6657
- isotherm data point (enthalpy change per injection) (UCP1 [2]; Molar ratio (Nucleotide/UCP) 1.0762): -5.447
- isotherm data point (enthalpy change per injection) (UCP1 [2]; Molar ratio (Nucleotide/UCP) 1.14336): -3.759
- isotherm data point (enthalpy change per injection) (UCP1 [2]; Molar ratio (Nucleotide/UCP) 1.21096): -3.295
- isotherm data point (enthalpy change per injection) (UCP1 [2]; Molar ratio (Nucleotide/UCP) 1.27901): -1.9786
- isotherm data point (enthalpy change per injection) (UCP1 [2]; Molar ratio (Nucleotide/UCP) 1.34751): -1.408
- isotherm data point (enthalpy change per injection) (UCP1 [2]; Molar ratio (Nucleotide/UCP) 1.41647): -0.3952
- isotherm data point (enthalpy change per injection) (UCP1 [2]; Molar ratio (Nucleotide/UCP) 1.48589): -0.4843
- isotherm data point (enthalpy change per injection) (UCP1 [2]; Molar ratio (Nucleotide/UCP) 1.55577): -0.1953
- isotherm data point (enthalpy change per injection) (UCP1 [2]; Molar ratio (Nucleotide/UCP) 1.62611): -0.1185
- isotherm data point (enthalpy change per injection) (UCP1 [2]; Molar ratio (Nucleotide/UCP) 1.69692): 0.2895
- isotherm data point (enthalpy change per injection) (UCP1 [2]; Molar ratio (Nucleotide/UCP) 1.76819): -0.544
- isotherm data point (enthalpy change per injection) (UCP1 [2]; Molar ratio (Nucleotide/UCP) 1.83995): -0.2075
- isotherm data point (enthalpy change per injection) (UCP1 [2]; Molar ratio (Nucleotide/UCP) 1.91217): -0.08977
- isotherm data point (enthalpy change per injection) (UCP1 [2]; Molar ratio (Nucleotide/UCP) 1.98488): 0.02152
- competition with GDP binding (UCP1 [3]): could only weakly compete with GDP binding
- inhibition of proton conductance (UCP1 [4]): significantly lower than that of purine nucleotides
